These results are taken from patent publication US9789080B2, “Ophthalmic formulations of mycophenolic acid” (INSITE VISION INCORPORATED, priority 2015, dated 2017).

Structures are written as SMILES.

Data set [1] can be described thus: dissolution of active ingredient in aqueous medium as a function of pH. The data set is classed as physicochemical. Conditions: pH of aqueous medium adjusted to greater than 7.0. An excerpt:
In an embodiment of the present disclosure, the pH of an ophthalmic formulation including mycophenolic acid or salt thereof in an aqueous medium with a reduced level of oxygen dissolved in the ophthalmic formulation can be adjusted to a pH of greater than 7.0, e.g., at least about 7.4, such as at least about 7.8. In an embodiment, the ophthalmic formulation of the present disclosure has a pH in a range of 7.4 to 7.8 with a specification of ±0.3 pH units.

The conditions of data set [2]: Merck Index 14th Ed. 2006, monograph no. 6327; cited from earlier work.

With `COc1c(C)c2c(c(O)c1C/C=C(\C)CCC(=O)O)C(=O)OC2` [mycophenolic acid], the “dissolution of the active ingredient” value in data set [1] was “facilitates dissolution”. The “solubility in cold water” value in data set [2] was “almost insoluble”.
